System: MV-4-11 cells
Assay: Gene expression microarray analysis (Affymetrix PrimeView) and GSEA
Type: cell-based, human
Set-up: RFU PODN (11730768_x_at) / Fold change /veh PODN (11730768_x_at) / RFU LINC00158 (11744669_a_at) / Fold change /veh LINC00158 (11744669_a_at) / RFU DUSP10 (11751237_a_at) / Fold change /veh DUSP10 (11751237_a_at) / RFU ID3 (11757404_x_at) / Fold change /veh ID3 (11757404_x_at) / RFU PLEKHG5 (11737974_s_at) / Fold change /veh PLEKHG5 (11737974_s_at) / RFU LRRC4B (11730491_at) / Fold change /veh LRRC4B (11730491_at) / RFU GIMAP4 (11747438_a_at) / Fold change /veh GIMAP4 (11747438_a_at) / RFU KRT8 (11758183_x_at) / Fold change /veh KRT8 (11758183_x_at) / RFU CNN1 (11734310_a_at) / Fold change /veh CNN1 (11734310_a_at) / RFU VPS37D (11726825_at) / Fold change /veh VPS37D (11726825_at) / RFU C10orf10 (11716522_x_at) / Fold change /veh C10orf10 (11716522_x_at) / RFU KIR2DL2 /// KIR2DL4 /// KIR2DL5A /// KIR2DL5B /// KIR2DS1 /// KIR2DS2 /// KIR2DS3 /// KIR2DS4 /// KIR3DL3 /// KIR3DL3 /// KIR3DS1 (11738374_at) / Fold change /veh KIR2DL2 /// KIR2DL4 /// KIR2DL5A /// KIR2DL5B /// KIR2DS1 /// KIR2DS2 /// KIR2DS3 /// KIR2DS4 /// KIR3DL3 /// KIR3DL3 /// KIR3DS1 (11738374_at) / RFU C1QL1 (11718748_at) / Fold change /veh C1QL1 (11718748_at) / RFU TMPRSS4 (11747572_a_at) / Fold change /veh TMPRSS4 (11747572_a_at) / RFU HAMP (11756126_x_at) / Fold change /veh HAMP (11756126_x_at) / RFU RNFT2 (11725882_a_at) / Fold change /veh RNFT2 (11725882_a_at) / RFU NR4A2 (11747474_a_at) / Fold change /veh NR4A2 (11747474_a_at) / RFU ABCC12 (11746883_a_at) / Fold change /veh ABCC12 (11746883_a_at) / RFU TMEM136 (11760407_x_at) / Fold change /veh TMEM136 (11760407_x_at) / RFU CLDN22 /// WWC2 (11732394_at) / Fold change /veh CLDN22 /// WWC2 (11732394_at) / RFU HLA-DPB1 (11760878_x_at) / Fold change /veh HLA-DPB1 (11760878_x_at) / RFU SPINT1 (11716480_a_at) / Fold change /veh SPINT1 (11716480_a_at) / RFU GAP43 (11754022_s_at) / Fold change /veh GAP43 (11754022_s_at) / RFU A4GNT (11735810_at) / Fold change /veh A4GNT (11735810_at) / RFU PRB3 (11715151_x_at) / Fold change /veh PRB3 (11715151_x_at) / RFU TUBB4B (11761932_at) / Fold change /veh TUBB4B (11761932_at) / RFU CAPN14 (11732068_a_at) / Fold change /veh CAPN14 (11732068_a_at) / RFU TMCC2 (11721928_a_at) / Fold change /veh TMCC2 (11721928_a_at) / RFU IRGQ (11745062_a_at) / Fold change /veh IRGQ (11745062_a_at) / RFU FAM174B (11720279_a_at) / Fold change /veh FAM174B (11720279_a_at) / RFU TMPRSS4 (11748680_a_at) / Fold change /veh TMPRSS4 (11748680_a_at) / RFU FAM212B (11763350_a_at) / Fold change /veh FAM212B (11763350_a_at) / RFU PLEKHG5 (11743358_a_at) / Fold change /veh PLEKHG5 (11743358_a_at) / RFU ZSCAN30 (11745921_a_at) / Fold change /veh ZSCAN30 (11745921_a_at) / RFU CMKLR1 (11741424_a_at) / Fold change /veh CMKLR1 (11741424_a_at) / RFU LOC101060620 /// MAPK8IP1 (11723275_at) / Fold change /veh LOC101060620 /// MAPK8IP1 (11723275_at) / RFU SPTSSB (11747773_x_at) / Fold change /veh SPTSSB (11747773_x_at) / RFU PRSS12 (11739890_at) / Fold change /veh PRSS12 (11739890_at) / RFU BIN1 (11741810_x_at) / Fold change /veh BIN1 (11741810_x_at) / RFU WNT11 (11732464_a_at) / Fold change /veh WNT11 (11732464_a_at) / RFU C10orf10 (11716521_a_at) / Fold change /veh C10orf10 (11716521_a_at) / RFU C5orf56 (11738089_at) / Fold change /veh C5orf56 (11738089_at) / RFU CYB561 (11721691_x_at) / Fold change /veh CYB561 (11721691_x_at) / RFU ANKRD19P (11752326_a_at) / Fold change /veh ANKRD19P (11752326_a_at) / RFU OR2T12 /// OR2T33 /// OR2T8 (11738714_s_at) / Fold change /veh OR2T12 /// OR2T33 /// OR2T8 (11738714_s_at) / RFU VCAN (11748164_a_at) / Fold change /veh VCAN (11748164_a_at) / RFU JSRP1 (11732532_at) / Fold change /veh JSRP1 (11732532_at) / RFU KRTAP10-11 (11738290_x_at) / Fold change /veh KRTAP10-11 (11738290_x_at) / RFU MYO3A (11730013_a_at) / Fold change /veh MYO3A (11730013_a_at) / RFU EBF3 (11725865_a_at) / Fold change /veh EBF3 (11725865_a_at) / RFU CAMK2N1 (11719241_x_at) / Fold change /veh CAMK2N1 (11719241_x_at) / RFU C5orf56 (11738088_a_at) / Fold change /veh C5orf56 (11738088_a_at) / RFU OLFML3 (11715873_a_at) / Fold change /veh OLFML3 (11715873_a_at) / RFU LOC100653217 /// NTM (11731650_a_at) / Fold change /veh LOC100653217 /// NTM (11731650_a_at) / RFU MAPK11 (11762145_a_at) / Fold change /veh MAPK11 (11762145_a_at) / RFU FIZ1 (11724087_x_at) / Fold change /veh FIZ1 (11724087_x_at) / RFU OASL (11726364_x_at) / Fold change /veh OASL (11726364_x_at) / RFU SOX15 (11748057_x_at) / Fold change /veh SOX15 (11748057_x_at) / RFU CD79A (11719716_a_at) / Fold change /veh CD79A (11719716_a_at) / RFU HIST1H1D (11736915_at) / Fold change /veh HIST1H1D (11736915_at) / RFU CASKIN2 (11723855_a_at) / Fold change /veh CASKIN2 (11723855_a_at) / RFU LOC730098 (11760151_x_at) / Fold change /veh LOC730098 (11760151_x_at) / RFU OR4N2 (11742367_at) / Fold change /veh OR4N2 (11742367_at) / RFU PRRT2 (11749266_a_at) / Fold change /veh PRRT2 (11749266_a_at) / RFU SNX32 (11753110_a_at) / Fold change /veh SNX32 (11753110_a_at) / RFU CDHR5 (11726645_a_at) / Fold change /veh CDHR5 (11726645_a_at) / RFU RCAN1 (11760418_a_at) / Fold change /veh RCAN1 (11760418_a_at) / RFU FAM167A (11723789_a_at) / Fold change /veh FAM167A (11723789_a_at) / RFU FAM26E (11764081_at) / Fold change /veh FAM26E (11764081_at) / RFU ISYNA1 (11749810_s_at) / Fold change /veh ISYNA1 (11749810_s_at) / RFU ACY1 (11761880_at) / Fold change /veh ACY1 (11761880_at) / RFU 11764098_at / Fold change /veh 11764098_at / RFU SAMD14 (11745864_x_at) / Fold change /veh SAMD14 (11745864_x_at) / RFU NPB (11741838_a_at) / Fold change /veh NPB (11741838_a_at) / RFU TMPRSS6 (11731388_a_at) / Fold change /veh TMPRSS6 (11731388_a_at) / RFU KRTAP10-2 (11738614_at) / Fold change /veh KRTAP10-2 (11738614_at) / RFU ARHGAP8 /// PRR5-ARHGAP8 (11727945_x_at) / Fold change /veh ARHGAP8 /// PRR5-ARHGAP8 (11727945_x_at) / RFU KRTAP5-7 /// NADSYN1 (11734609_at) / Fold change /veh KRTAP5-7 /// NADSYN1 (11734609_at) / RFU RASL12 (11751679_a_at) / Fold change /veh RASL12 (11751679_a_at) / RFU CDKN2B (11736163_a_at) / Fold change /veh CDKN2B (11736163_a_at) / RFU PRF1 (11729649_at) / Fold change /veh PRF1 (11729649_at) / RFU, ZNF638 /// ZNF638-IT1 / Fold change vs veh, ZNF638 /// ZNF638-IT1 / RFU, PANK3 / Fold change vs veh, PANK3 / RFU, SH3YL1 / Fold change vs veh, SH3YL1 / RFU, ZEB2 / Fold change vs veh, ZEB2 / RFU, NRIP1 / Fold change vs veh, NRIP1 / RFU, PTTG1IP / Fold change vs veh, PTTG1IP / RFU, CAPN2 / Fold change vs veh, CAPN2 / RFU, MED14 / Fold change vs veh, MED14 / RFU, SNORA58 / Fold change vs veh, SNORA58 / RFU, C1orf63 / Fold change vs veh, C1orf63 / RFU, LRRFIP1 / Fold change vs veh, LRRFIP1 / RFU, NDUFAF7 / Fold change vs veh, NDUFAF7 / RFU, SLC12A2 / Fold change vs veh, SLC12A2 / RFU, IBTK / Fold change vs veh, IBTK / RFU, ESF1 / Fold change vs veh, ESF1 / Fold change vs veh, TMEM50B / RFU, TAOK1 / Fold change vs veh, TAOK1 / RFU, ACBD3 / Fold change vs veh, ACBD3 / RFU, TMA16 / Fold change vs veh, TMA16 / RFU, RWDD3 / Fold change vs veh, RWDD3 / RFU, BCAT1 / Fold change vs veh, BCAT1 / RFU, EDEM3 / Fold change vs veh, EDEM3 / RFU, TMEM33 / Fold change vs veh, TMEM33 / RFU, WDR75 / Fold change vs veh, WDR75 / RFU, AHCTF1 / Fold change vs veh, AHCTF1 / RFU, TFRC / Fold change vs veh, TFRC / RFU, ZDHHC17 / Fold change vs veh, ZDHHC17 / RFU, NOM1 / Fold change vs veh, NOM1 / RFU, ARL8B / Fold change vs veh, ARL8B / RFU, ZBTB11 / Fold change vs veh, ZBTB11 / RFU, TAMM41 / Fold change vs veh, TAMM41 / RFU, KIAA1704 /// LOC100996395 / Fold change vs veh, KIAA1704 /// LOC100996395 / RFU, ING1 / Fold change vs veh, ING1 / RFU, TRMT61B / Fold change vs veh, TRMT61B / RFU, FUBP3 / Fold change vs veh, FUBP3 / RFU, TP53 / Fold change vs veh, TP53 / RFU, TNKS2 / Fold change vs veh, TNKS2 / RFU, ZFP14 / Fold change vs veh, ZFP14 / RFU, ACTR2 / Fold change vs veh, ACTR2 / RFU, PPP3R1 / Fold change vs veh, PPP3R1 / RFU, PIK3R1 / Fold change vs veh, PIK3R1 / RFU, HNRNPA1 / Fold change vs veh, HNRNPA1 / RFU, RNF170 / Fold change vs veh, RNF170 / RFU, ZNF28 / Fold change vs veh, ZNF28 / RFU, RNGTT / Fold change vs veh, RNGTT / RFU, OGT / Fold change vs veh, OGT / RFU, BRD1 / Fold change vs veh, BRD1 / RFU, MARS / Fold change vs veh, MARS / RFU, ZNF655 / Fold change vs veh, ZNF655 / RFU, FAHD1 / Fold change vs veh, FAHD1 / RFU, BDP1 / Fold change vs veh, BDP1 / RFU, LRRCC1 / Fold change vs veh, LRRCC1 / RFU, ARID1A / Fold change vs veh, ARID1A / RFU, ZNF146 / Fold change vs veh, ZNF146 / RFU, ZNF330 / Fold change vs veh, ZNF330 / RFU, GPN3 / Fold change vs veh, GPN3 / RFU, C9orf123 / Fold change vs veh, C9orf123 / RFU, N4BP2L2 / Fold change vs veh, N4BP2L2 / RFU, ARFIP1 / Fold change vs veh, ARFIP1 / RFU, FAM179B / Fold change vs veh, FAM179B / RFU, BCL10 / Fold change vs veh, BCL10 / RFU, UHRF1BP1L / Fold change vs veh, UHRF1BP1L / RFU, BET1 / Fold change vs veh, BET1 / RFU, CNOT2 / Fold change vs veh, CNOT2 / RFU, ZNF268 / Fold change vs veh, ZNF268 / Fold change vs veh, ZNF507 / RFU, DGCR2 / Fold change vs veh, DGCR2 / RFU, WDSUB1 / Fold change vs veh, WDSUB1 / Fold change vs veh, HSP90B1 /// MIR3652 / RFU, ADSS / Fold change vs veh, ADSS / RFU, GK / Fold change vs veh, GK / RFU, ZNF148 / Fold change vs veh, ZNF148 / RFU, TAF9 / Fold change vs veh, TAF9 / RFU, SLC1A5 / Fold change vs veh, SLC1A5 / RFU, SLMO2 / Fold change vs veh, SLMO2 / RFU, ABCC4 / Fold change vs veh, ABCC4 / RFU, LOC101060439 /// RAP1B / Fold change vs veh, LOC101060439 /// RAP1B / RFU, RFX7 / Fold change vs veh, RFX7 / RFU, GTPBP10 / Fold change vs veh, GTPBP10 / RFU, CNEP1R1 / Fold change vs veh, CNEP1R1 / RFU, BIVM-ERCC5 /// ERCC5 / Fold change vs veh, BIVM-ERCC5 /// ERCC5 / RFU, ILF3 / Fold change vs veh, ILF3 / RFU 11762660_at / Fold change /veh 11762660_at / RFU VCAN (11757783_s_at) / Fold change /veh VCAN (11757783_s_at) / RFU DDX43 (11728927_at) / Fold change /veh DDX43 (11728927_at) / RFU KRT8 (11758188_x_at) / Fold change /veh KRT8 (11758188_x_at) / RFU NKD1 (11759106_at) / Fold change /veh NKD1 (11759106_at) / RFU SRD5A1 (11742802_a_at) / Fold change /veh SRD5A1 (11742802_a_at) / RFU TPSAB1 /// TPSB2 (11721975_s_at) / Fold change /veh TPSAB1 /// TPSB2 (11721975_s_at) / RFU GSTM3 (11746129_a_at) / Fold change /veh GSTM3 (11746129_a_at) / RFU IL23R (11737362_x_at) / Fold change /veh IL23R (11737362_x_at) / RFU TMEM51 (11727254_a_at) / Fold change /veh TMEM51 (11727254_a_at) / RFU PIWIL2 (11732686_x_at) / Fold change /veh PIWIL2 (11732686_x_at) / RFU ORM1 (11744905_x_at) / Fold change /veh ORM1 (11744905_x_at) / RFU CCDC152 (11743942_at) / Fold change /veh CCDC152 (11743942_at) / RFU ECM1 (11717891_a_at) / Fold change /veh ECM1 (11717891_a_at) / RFU IL23R (11748794_a_at) / Fold change /veh IL23R (11748794_a_at) / RFU TNFAIP8L3 (11732012_x_at) / Fold change /veh TNFAIP8L3 (11732012_x_at) / RFU MBOAT4 (11741988_at) / Fold change /veh MBOAT4 (11741988_at) / RFU 11764193_at / Fold change /veh 11764193_at / RFU TMEM53 (11763286_at) / Fold change /veh TMEM53 (11763286_at) / RFU MAGEB2 (11727129_at) / Fold change /veh MAGEB2 (11727129_at) / RFU TMEM200A (11744735_a_at) / Fold change /veh TMEM200A (11744735_a_at) / RFU CCDC152 (11751479_a_at) / Fold change /veh CCDC152 (11751479_a_at) / RFU FAM211A (11726209_a_at) / Fold change /veh FAM211A (11726209_a_at) / RFU RGS16 (11746705_a_at) / Fold change /veh RGS16 (11746705_a_at) / RFU VCAN (11755009_s_at) / Fold change /veh VCAN (11755009_s_at) / RFU RHOB (11743442_s_at) / Fold change /veh RHOB (11743442_s_at) / RFU RGS16 (11720943_a_at) / Fold change /veh RGS16 (11720943_a_at) / RFU RGS16 (11720944_at) / Fold change /veh RGS16 (11720944_at) / RFU, VPS4B / Fold change vs veh, VPS4B / RFU, CREB1 / Fold change vs veh, CREB1 / RFU, DNAJC13 / Fold change vs veh, DNAJC13 / RFU, GNAQ / Fold change vs veh, GNAQ / RFU, CDK5R1 / Fold change vs veh, CDK5R1 / RFU, ZRANB3 / Fold change vs veh, ZRANB3 / RFU, CUL4A / Fold change vs veh, CUL4A / RFU, CCNY / Fold change vs veh, CCNY / RFU, UFL1 / Fold change vs veh, UFL1 / RFU, COG3 / Fold change vs veh, COG3 / RFU, DIAPH2 / Fold change vs veh, DIAPH2 / RFU, SKA2 / Fold change vs veh, SKA2 / RFU, AFF3 / Fold change vs veh, AFF3 / RFU, LMF1 / Fold change vs veh, LMF1 / RFU, IPO11 / Fold change vs veh, IPO11 / RFU, DFFB / Fold change vs veh, DFFB / RFU, FOXP1 / Fold change vs veh, FOXP1 / RFU, CARD8 / Fold change vs veh, CARD8 / RFU, STRN3 / Fold change vs veh, STRN3 / RFU, ADK / Fold change vs veh, ADK / RFU, RASSF2 / Fold change vs veh, RASSF2 / RFU, WIPF1 / Fold change vs veh, WIPF1 / RFU, LARP1B / Fold change vs veh, LARP1B / RFU, RASA1 / Fold change vs veh, RASA1 / RFU, RB1 / Fold change vs veh, RB1 / RFU, PPFIA1 / Fold change vs veh, PPFIA1 / RFU, MAT2A / Fold change vs veh, MAT2A / RFU, CCT5 / Fold change vs veh, CCT5 / RFU, WDR92 / Fold change vs veh, WDR92 / RFU, CUX1 / Fold change vs veh, CUX1 / RFU, TTC7A / Fold change vs veh, TTC7A / RFU, TMEM135 / Fold change vs veh, TMEM135 / RFU, DEPTOR / Fold change vs veh, DEPTOR / RFU, CPM / Fold change vs veh, CPM / RFU, DNAJB6 / Fold change vs veh, DNAJB6 / RFU, CACNA2D3 / Fold change vs veh, CACNA2D3 / RFU, DTX4 / Fold change vs veh, DTX4 / RFU, TFCP2 / Fold change vs veh, TFCP2 / RFU, GMCL1 /// GMCL1P1 / Fold change vs veh, GMCL1 /// GMCL1P1 / RFU, AEBP2 / Fold change vs veh, AEBP2 / RFU, SNHG1 /// SNORD22 /// SNORD25 /// SNORD26 /// SNORD27 /// SNORD28 /// SNORD29 /// SNORD31 / Fold change vs veh, SNHG1 /// SNORD22 /// SNORD25 /// SNORD26 /// SNORD27 /// SNORD28 /// SNORD29 /// SNORD31 / Fold change (Aza/veh), C12orf56 (ProbeSet 11735607_a_at) / Fold change (ACY-1035/veh), C12orf56 (ProbeSet 11735607_a_at) / Fold change (Aza/veh), FGFR1OP (ProbeSet 11751329_s_at) / Fold change (ACY-1035/veh), FGFR1OP (ProbeSet 11751329_s_at) / Fold change (Aza/veh), VPS36 (ProbeSet 11739960_a_at) / Fold change (ACY-1035/veh), VPS36 (ProbeSet 11739960_a_at) / RFU SYPL1 (11715823_x_at) / Fold change /veh SYPL1 (11715823_x_at) / RFU IGFBP7 (11715501_s_at) / Fold change /veh IGFBP7 (11715501_s_at) / RFU REEP3 (11722064_at) / Fold change /veh REEP3 (11722064_at) / RFU IGLL1 (11728026_x_at) / Fold change /veh IGLL1 (11728026_x_at): dose or concentration left out as unconfirmed
Settings: ProbeSet 11725100_s_at; LIST B

## Nc1ncn([C@@H]2O[C@H](CO)[C@@H](O)[C@H]2O)c(=O)n1 [azacitidine]
  Fold change vs veh, ESF1: 0.96
